Blank lines part the entries; values can stand above or below the compound they belong to.
Columns and labels:
[1] = parameters: species or system C57BL/6 mice; conditions: mouse, in vivo
Experimental: 8 week old, female C57BL/6 mice were weighed and anesthetized (90 mg/kg Ketamine and 9 mg/kg Xylazine). Mean arterial pressure (MAP) was measured by cannulating the exposed left carotid artery with a PE-10 intravascular polyethylene catheter, connected to a pressure transducer (Gould Inc, Valley View, Ohio).

[2] = system: mouse tail lymphatic network (initial lymphatics); experiment: Mouse tail microlymphangiography with residence time distribution (RTD) analysis of lymphatic function; format: in vivo, mice (C57BL/6); conditions: for overall lymphatic fluid velocity in the dermal lymphatic network: collecting lymphatics not ligated
Experimental: Studies were carried out in 7-10 week old female C57BL/6 and nude mice. Forty-eight mice were used for these experiments: sixteen for the inhibition experiments, fifteen for the ligation experiment, and seventeen additional controls. All procedures were carried out following the guidelines of the Institutional Animal Care and Use Committee of the Massachusetts General Hospital.
Mice in the experimental groups 5 and 6 underwent ligation of the deep collecting lymphatic vessels of the tail immediately before the microlymphangiography, to avoid development of edema (FIG. 1). Mice were anesthetized intramuscularly (90 mg/kg Ketamine and 9 mg/kg Xylazine) and placed on a heated surgical microscopy table. The translucent deep collecting lymphatic vessels were separated from the tail veins with microsurgical forceps through small, bilateral incisions in the axial direction, and ligated with a 10-O non-absorbable suture (Prolene, Ethicon, N.J., United States). The incision site was closed with surgical glue, taking care to avoid circumferential tension on the tail that could interfere with superficial lymphatic function.
Fluorescence intensity measurements were carried out using RTD analysis as described previously (Swartz et al., Am J Physiol. 1996, 270:H324-H329). Briefly, mice were anesthetized intramuscularly (90 mg/kg Ketamine and 9 mg/kg Xylazine) and placed on a small plate. 2.5% FITC-dextran (MW=2 million; Sigma, St. Louis, Mo.) in PBS was infused into the interstitial tissue of the tail tip, with a constant pressure of 40 cm H2O via a 30-gauge needle. […] The mouse was transferred to an epifluorescence microscopy setup as described previously (Leu et al., Am J Physiol. 1994, 267:H1507-H1513). […] The temporally consecutive fluorescent images were analyzed offline using NIH Image Analysis software. The average fluorescence intensity was determined for each image, and used to calculate the mean residence time for each region, the overall lymph fluid velocity in the tail lymphatic network, and the mean LV diameter.

[3] = 3 days of treatment, not ligated, mean±SE
[4] = after ligation of the collecting lymphatics, 3 days of treatment, mean±SE

MAP (mean arterial pressure) [1]: 71.7±1.4 mmHg
SMILES: CNC(=N)NCCC[C@H](N)C(=O)O [L-NMMA, NG-monomethyl-L-arginine]
decrease of overall lymphatic fluid velocity compared to controls that had received D-NMMA ([2]; 3 days of L-NMMA treatment, not ligated): 42%
overall lymphatic fluid velocity in the dermal lymphatic network ([2]; 3 days of treatment, mean±SE): 5.1±0.6 μm/s
injection rate of the fluorescent tracer into the interstitium [2, 3]: 11.3 ± 1.2 nL/min
mean lymphatic vessel diameter [2, 3]: 61.5±0.7 μm
injection rate [2, 4]: 25.0 ± 1.3 nL/min
mean lymphatic vessel diameter [2, 4]: 77.2±2.1 μm
lymphatic fluid velocity compared with controls treated with D-NMMA or AP (FIG. 2A) ([2]; not ligated, result in words): significantly lower
mean lymphatic vessel diameter compared with controls (FIG. 2C) ([2]; not ligated, result in words): not different

SMILES: CN=C(N)NCCC[C@@H](N)C(=O)O [D-NMMA]
overall lymphatic fluid velocity in the dermal lymphatic network ([2]; 3 days of treatment, mean±SE): 8.7±0.4 μm/s
injection rate of the fluorescent tracer into the interstitium [2, 3]: 15.7 ± 1.5 nL/min
mean lymphatic vessel diameter [2, 3]: 61.6±1.6 μm

Source: patent publication US20120237567A1, “MODULATING LYMPHATIC FUNCTION” (THE GENERAL HOSPITAL CORPORATION, priority 2004, published 2012)
